From publication PMC10439952, “JT002, a small molecule inhibitor of the NLRP3 inflammasome for the treatment of autoinflammatory disorders” (Scientific Reports, 2023) come the findings set out here.

The target of series [1] is NLRP3 inflammasome (Mus musculus, UniProt Q8R4B8). As to the kind of experiment: Inhibition of IL-1β production in mouse BMDMs stimulated by LPS + monosodium urate crystals. The class given is cell-based. On the set-up: host or cells: mouse PBMCs; mouse bone-marrow derived macrophages; mouse whole blood (C57BL/6 in the ex vivo study). The note with it: Mouse BMDM, read-out: Geo Av IC50, IL-1β. As for the experimental part: Inflammasome activation and whole blood assays were essentially carried out as described earlier. Details can be found in the supplementary information section accompanying this publication. A protocol for blood draws from healthy volunteers and use of the blood in preclinical assays was approved by Western Institutional Review Board, Inc (Puyallup, WA, USA). Informed consent was obtained from each donor prior to the first blood draw.
(§1) Cell viability was determined by addition of an equal volume of CellTiter-Glo® 2.0 reagent (Promega) to the remaining cells/supernatant in each well. Intracellular Caspase-1 activity was measured using the Caspase-Glo® assay (Promega) according to the manufacturer’s instructions. The biochemical capsase-1 assay was conducted at Reaction Biology Corporation (Malvern, USA). Human IL-1β, IL-1α, and TNFα and mouse IL-1β were measured in cell culture supernatants using homogeneous time resolved fluorescence assay kits (HTRF, Cisbio, Codolet, France). Human IL-18 was measured in cell culture supernatants using an ELISA kit (R&D Systems, Minneapolis, MN, USA). Plasma IL-1β concentrations were determined by Quantikine® ELISA (R&D Systems, Minneapolis, MN).
(§2) 4H). MS: m/z 433.1 (M+H+). […]

Series [2] is described as follows: Lipophilicity comparison. Type of series: physicochemical. The note with it: compared with MCC950.
Series [3] concerns the target T1, AIM2 inflammasome (Mus musculus, UniProt Q91VJ1).
T1 construct: host or cells: mouse BMDMs, LPS + transfected poly(dA:dT)
T1 sequence (Q91VJ1 1-354): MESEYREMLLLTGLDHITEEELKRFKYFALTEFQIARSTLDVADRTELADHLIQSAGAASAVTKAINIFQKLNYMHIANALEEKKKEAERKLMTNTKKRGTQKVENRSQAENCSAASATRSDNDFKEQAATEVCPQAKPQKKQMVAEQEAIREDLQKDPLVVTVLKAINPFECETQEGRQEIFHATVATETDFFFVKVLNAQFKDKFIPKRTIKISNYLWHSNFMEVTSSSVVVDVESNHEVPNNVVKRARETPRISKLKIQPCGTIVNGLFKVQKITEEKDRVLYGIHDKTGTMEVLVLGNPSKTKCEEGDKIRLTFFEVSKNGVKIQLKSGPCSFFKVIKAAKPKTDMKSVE
As to the kind of experiment: IL-1β production in mouse BMDMs after AIM2 activation (LPS + poly(dA:dT)). The class given is cell-based. The note with it: mBMDMs, concentrations up to 10 µM. The procedure:
as §1, §2
flagellin, prepared in Opt iMEM and combined with Lipofectamine 2000. […] After priming Nlrp3 -/- mBMDMs with 100 ng/mL of LPS for 3- 5 h, cells were exposed to 100 ng/mL L18- MDP and incubated overnight.At the end of the incubation period of the assays above, plates were briefly centri fuged and hal f of the cell culture supern atant remo ved and either analysed i mmediately or stored at - 80°C for subs equent cytokine […]

NLRP3 inflammasome, sequence (Q8R4B8 whole entry): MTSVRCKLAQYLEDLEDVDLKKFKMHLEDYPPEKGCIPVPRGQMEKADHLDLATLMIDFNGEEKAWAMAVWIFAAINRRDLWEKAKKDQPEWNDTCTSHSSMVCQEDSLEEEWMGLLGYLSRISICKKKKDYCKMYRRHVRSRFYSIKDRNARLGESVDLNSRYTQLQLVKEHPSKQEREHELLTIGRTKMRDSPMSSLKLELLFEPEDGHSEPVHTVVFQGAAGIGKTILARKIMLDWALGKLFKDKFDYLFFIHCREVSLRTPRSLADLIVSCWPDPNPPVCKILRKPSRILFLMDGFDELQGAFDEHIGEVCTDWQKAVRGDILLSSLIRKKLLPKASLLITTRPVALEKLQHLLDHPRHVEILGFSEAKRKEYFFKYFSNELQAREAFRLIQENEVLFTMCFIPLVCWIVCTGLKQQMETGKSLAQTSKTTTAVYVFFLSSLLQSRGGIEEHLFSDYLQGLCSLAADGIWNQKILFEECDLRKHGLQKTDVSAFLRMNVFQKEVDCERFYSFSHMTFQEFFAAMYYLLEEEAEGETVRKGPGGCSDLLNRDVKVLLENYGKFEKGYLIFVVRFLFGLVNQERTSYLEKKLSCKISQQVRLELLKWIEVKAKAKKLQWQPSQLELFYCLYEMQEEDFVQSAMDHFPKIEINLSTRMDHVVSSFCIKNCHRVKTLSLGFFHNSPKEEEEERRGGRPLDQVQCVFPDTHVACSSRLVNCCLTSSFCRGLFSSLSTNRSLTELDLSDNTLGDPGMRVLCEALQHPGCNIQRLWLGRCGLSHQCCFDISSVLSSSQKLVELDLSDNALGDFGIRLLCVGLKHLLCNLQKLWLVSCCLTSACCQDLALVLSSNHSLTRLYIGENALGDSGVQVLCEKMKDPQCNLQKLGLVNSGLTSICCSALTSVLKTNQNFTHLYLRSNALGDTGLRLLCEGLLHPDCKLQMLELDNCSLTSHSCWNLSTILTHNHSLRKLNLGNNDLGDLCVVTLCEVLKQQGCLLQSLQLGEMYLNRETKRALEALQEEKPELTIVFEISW

Regarding `CO[C@@H]1COc2c(S(=O)(=O)NC(=O)Nc3c4c(cc5c3CCC5)CCC4)cnn2C1` [JT002], in series [1], the IC50 worked out at 3 nM. Further, in series [2], the lipophilicity result is recorded as “lower lipophilicity than MCC950”. Further, the “inhibition of IL-1β production after AIM2 activation” value in series [3] was “no inhibition of IL-1β production”.
